Measured values taken from patent publication US10287301B2 (Achillion Pharmaceuticals, Inc., priority 2015, dated 2019).
pIC50: −log10 of the molar value.

These compounds were tested against Human Factor D (Homo sapiens (Human), UniProt P00746) (assay: Human Factor D Assay). Conditions: Human Factor D, Table 3; read-out: IC50.
Human Factor D, sequence (P00746 26-253): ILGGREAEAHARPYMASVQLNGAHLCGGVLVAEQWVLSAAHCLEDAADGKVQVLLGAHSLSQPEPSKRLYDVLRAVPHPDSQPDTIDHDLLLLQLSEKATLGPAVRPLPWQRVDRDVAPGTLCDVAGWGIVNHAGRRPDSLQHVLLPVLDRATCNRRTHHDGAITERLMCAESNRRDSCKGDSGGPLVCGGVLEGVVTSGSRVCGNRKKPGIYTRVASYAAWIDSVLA
Type: biochemical
In short: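 Factor D (from human serum) 80 nM final + cpd, 5 min RT, 50 mM Tris/1M NaCl pH 7.5; add Z-L-Lys-SBzl 100 μM and DTNB 100 μM final. IC50 by nonlinear fit of rates vs [cpd].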
`COC(=O)c1ncc(-c2ccc3c(c2)c(C(C)=O)nn3CC(=O)N2C[C@H](F)C[C@H]2C(=O)Nc2cccc(Br)n2)cn1` [Compound 596, methyl 5-(3-Acetyl-1-(2-((2S,4R)-2-((6-bromopyridin-2-yl)carbamoyl)-4-fluoropyrrolidin-1-yl)-2-oxoethyl)-1H-indazol-5-yl)pyrimidine-2-carboxylate] was tested, and the pIC50 was over 6.00. In the case of `CC(=O)Nc1ncc(-c2ccc3c(c2)c(C(C)=O)nn3CC(=O)N2C[C@H](F)C[C@H]2C(=O)Nc2cccc(Br)n2)cn1` [Compound 597, (2S,4R)-1-(2-(5-(2-Acetamidopyrimidin-5-yl)-3-acetyl-1H-indazol-1-yl)acetyl)-N-(6-bromopyridin-2-yl)-4-fluoropyrrolidine-2-carboxamide], the pIC50 was over 6.00. Compound `CC(=O)c1nn(CC(=O)N2C[C@H](F)C[C@H]2C(=O)Nc2cccc(Br)n2)c2ccc(-c3cnc(C(=O)O)nc3)cc12` [Compound 598, 5-(3-Acetyl-1-(2-((2S,4R)-2-((6-bromopyridin-2-yl)carbamoyl)-4-fluoropyrrolidin-1-yl)-2-oxoethyl)-1H-indazol-5-yl)pyrimidine-2-carboxylic acid] has a pIC50 of over 6.00. Compound `CC(=O)c1nn(CC(=O)N2C[C@H](F)C[C@H]2C(=O)Nc2cccc(Br)n2)c2ccc(-c3cnc(C(N)=O)nc3)cc12` [Compound 599, 5-(3-Acetyl-1-(2-((2S,4R)-2-((6-bromopyridin-2-yl)carbamoyl)-4-fluoropyrrolidin-1-yl)-2-oxoethyl)-1H-indazol-5-yl)pyrimidine-2-carboxamide] has a pIC50 of over 6.00. In the case of `CC(=O)c1nn(CC(=O)N2C[C@H](F)C[C@H]2C(=O)Nc2cccc(-c3ncco3)n2)c2ccc(-c3cnc(C)nc3)cc12` [Compound 600, (2S,4R)-1-(2-(3-Acetyl-5-(2-methylpyrimidin-5-yl)-1H-indazol-1-yl)acetyl)-4-fluoro-N-(6-(oxazol-2-yl)pyridin-2-yl)pyrrolidine-2-carboxamide], the pIC50 was over 6.00. `CC(=O)c1nn(CC(=O)N2C[C@H](F)C[C@H]2C(=O)Nc2nc(OCC(F)(F)F)ccc2C)c2ccc(-c3cnc(C)nc3)cc12` [Compound 601, (2S,4R)-1-(2-(3-Acetyl-5-(2-methylpyrimidin-5-yl)-1H-indazol-1-yl)acetyl)-4-fluoro-N-(3-methyl-6-(2,2,2-trifluoroethoxy)pyridin-2-yl)pyrrolidine-2-carboxamide] was tested, and the pIC50 was over 6.00. Work on `CC(=O)c1nn(CC(=O)N2C[C@H](F)C[C@H]2C(=O)Nc2nc(C(C)(F)F)ccc2C)c2ccc(-c3cnc(C)nc3)cc12` [Compound 602, (2S,4R)-1-(2-(3-Acetyl-5-(2-methylpyrimidin-5-yl)-1H-indazol-1-yl)acetyl)-N-(6-(1,1-difluoroethyl)-3-methylpyridin-2-yl)-4-fluoropyrrolidine-2-carboxamide] yielded a pIC50 of over 6.00. `CC(=O)c1nn(CC(=O)N2[C@@H]3C[C@@H]3C[C@H]2C(=O)Nc2nc(Br)ccc2C2CC2)c2ccc(-c3cnc(C)nc3)cc12` [Compound 603, (1R,3S,5R)-2-(2-(3-Acetyl-5-(2-methylpyrimidin-5-yl)-1H-indazol-1-yl)acetyl)-N-(6-bromo-3-cyclopropyl-pyridin-2-yl)-2-azabicyclo[3.1.0]hexane-3-carboxamide] showed a pIC50 of over 6.00. For `CC(=O)c1nn(CC(=O)N2C[C@H](F)C[C@H]2C(=O)Nc2cccc(Br)n2)c2ccc(-c3cnc(O)nc3)cc12` [Compound 604, (2S,4R)-1-(2-(3-Acetyl-5-(2-hydroxypyrimidin-5-yl)-1H-indazol-1-yl)acetyl)-N-(6-bromopyridin-2-yl)-4-fluoropyrrolidine-2-carboxamide], the pIC50 was over 6.00. In the case of `CC(=O)c1nn(CC(=O)N2C[C@@H]3C[C@@H]3[C@H]2C(=O)Nc2nc(Br)ccc2C)c2ccc(-c3cnc(C)nc3)cc12` [Compound 605, (1S,2S,5R)-3-(2-(3-Acetyl-5-(2-methylpyrimidin-5-yl)-1H-indazol-1-yl)acetyl)-N-(6-bromo-3-methylpyridin-2-yl)-3-azabicyclo[3.1.0]hexane-2-carboxamide], the pIC50 was over 6.00. Work on `COCc1ccc(Br)nc1NC(=O)[C@@H]1C[C@@H](F)CN1C(=O)Cn1nc(C(C)=O)c2cc(-c3cnc(C)nc3)ccc21` [Compound 606, (2S,4R)-1-(2-(3-Acetyl-5-(2-methylpyrimidin-5-yl)-1H-indazol-1-yl)acetyl)-N-(6-bromo-3-(methoxymethyl)pyridin-2-yl)-4-fluoropyrrolidine-2-carboxamide] yielded a pIC50 of over 6.00. Compound `COC(=O)c1ccc(Br)nc1NC(=O)[C@@H]1C[C@@H](F)CN1C(=O)Cn1nc(C(C)=O)c2cc(-c3cnc(C)nc3)ccc21` [Compound 607, Methyl 2-((2S,4R)-1-(2-(3-Acetyl-5-(2-methylpyrimidin-5-yl)-1H-indazol-1-yl)acetyl)-4-fluoropyrrolidine-2-carboxamido)-6-bromonicotinate] has a pIC50 of over 6.00. Compound `CC(=O)c1nn(CC(=O)N2C[C@H](F)C[C@H]2C(=O)Nc2cccc(Br)n2)c2c(C)cc(-c3cnc(C)nc3)cc12` [Compound 608, (2S,4R)-1-(2-(3-Acetyl-7-methyl-5-(2-methylpyrimidin-5-yl)-1H-indazol-1-yl)acetyl)-N-(6-bromopyridin-2-yl)-4-fluoropyrrolidine-2-carboxamide] has a pIC50 of over 6.00. Work on `CC(=O)c1nn(CC(=O)N2C[C@H](F)C[C@H]2C(=O)Nc2cccc(Br)n2)c2cc(C)c(-c3cnc(C)nc3)cc12` [Compound 609, (2S,4R)-1-(2-(3-Acetyl-6-methyl-5-(2-methylpyrimidin-5-yl)-1H-indazol-1-yl)acetyl)-N-(6-bromopyridin-2-yl)-4-fluoropyrrolidine-2-carboxamide] yielded a pIC50 of over 6.00. For `CC(=O)c1nn(CC(=O)N2[C@@H]3C[C@@H]3C[C@H]2C(=O)NC2CCN(CC(F)(F)F)C2)c2ccc(-c3cnc(C)nc3)cc12` (stereo partly drawn) [Compound 611, (1R, 3S, 5R)-2-(2-(3-acetyl-5-(2-methylpyrimidin-5-yl)-1H-indazol-1-yl)acetyl)-N-(1-(2,2,2-trifluoroethyl)pyrrolidin-3-yl)-2-azabicyclo [3.1.0] hexane-3-carboxamide], the pIC50 was over 6.00. Compound `CC(=O)c1nn(CC(=O)N2C[C@H](F)C[C@H]2C(=O)NCC23CC4CC(CC(C4)C2)C3)c2ccc(-c3cnc(C)nc3)cc12` [Compound 612, (2S,4R)-1-(2-(3-Acetyl-5-(2-methylpyrimidin-5-yl)-1H-indazol-1-yl)acetyl)-N-(((3S,5S,7S)-adamantan-1-yl)methyl)-4-fluoropyrrolidine-2-carboxamide] has a pIC50 of over 6.00. `CC(=O)c1nn(CC(=O)N2C[C@H](F)C[C@H]2C(=O)Nc2nc(Br)ccc2C(=O)O)c2ccc(-c3cnc(C)nc3)cc12` [Compound 615, 2-((2S,4R)-1-(2-(3-Acetyl-5-(2-methylpyrimidin-5-yl)-1H-indazol-1-yl)acetyl)-4-fluoropyrrolidine-2-carboxamido)-6-bromonicotinic acid] was tested, and the pIC50 was over 6.00. `CC(=O)c1nn(CC(=O)N2[C@H](C(=O)Nc3nc(Br)ccc3C3CC3)C[C@@]3(C)C[C@@H]23)c2ccc(-c3cnc(C)nc3)cc12` [Compound 616, (1R,3S,5R)-2-(2-(3-Acetyl-5-(2-methylpyrimidin-5-yl)-1H-indazol-1-yl)acetyl)-N-(6-bromo-3-cyclopropyl-pyridin-2-yl)-5-methyl-2-azabicyclo[3.1.0]hexane-3-carboxamide] showed a pIC50 of over 6.00.
